ChEMBL document CHEMBL1145108, “Fragment screening and assembly: a highly efficient approach to a selective and cell active protein tyrosine phosphatase 1B inhibitor” (J Med Chem, 2003)

Tests used:
[1] = target: Tyrosine-protein phosphatase non-receptor type 2 (Homo sapiens, UniProt P17706); experiment: Inhibitory constant of compound against T cell protein tyrosine phosphatase was determined; format: cell-based
[2] = target: T1, Tyrosine-protein phosphatase non-receptor type 1 (Homo sapiens, UniProt P18031)
T1 sequence (P18031 whole entry): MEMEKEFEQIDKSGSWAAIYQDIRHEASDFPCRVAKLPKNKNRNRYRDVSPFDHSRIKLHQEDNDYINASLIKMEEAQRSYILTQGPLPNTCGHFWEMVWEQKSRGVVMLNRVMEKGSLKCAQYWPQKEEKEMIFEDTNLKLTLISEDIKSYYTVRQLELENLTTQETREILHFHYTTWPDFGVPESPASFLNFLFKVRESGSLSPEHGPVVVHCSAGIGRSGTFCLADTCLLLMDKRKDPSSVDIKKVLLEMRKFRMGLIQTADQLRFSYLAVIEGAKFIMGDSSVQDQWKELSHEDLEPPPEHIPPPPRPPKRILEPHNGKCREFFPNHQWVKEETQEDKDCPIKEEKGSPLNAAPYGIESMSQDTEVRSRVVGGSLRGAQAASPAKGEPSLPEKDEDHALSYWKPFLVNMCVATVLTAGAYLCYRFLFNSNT
Description: Binding affinity against protein tyrosine phosphatase PTB1B

[3] = target: T1, Tyrosine-protein phosphatase non-receptor type 1; experiment: Dissociation constant against Protein-tyrosine phosphatase 1B receptor was determined

Chain of Tyrosine-protein phosphatase non-receptor type 2 (P17706 whole entry, looked up): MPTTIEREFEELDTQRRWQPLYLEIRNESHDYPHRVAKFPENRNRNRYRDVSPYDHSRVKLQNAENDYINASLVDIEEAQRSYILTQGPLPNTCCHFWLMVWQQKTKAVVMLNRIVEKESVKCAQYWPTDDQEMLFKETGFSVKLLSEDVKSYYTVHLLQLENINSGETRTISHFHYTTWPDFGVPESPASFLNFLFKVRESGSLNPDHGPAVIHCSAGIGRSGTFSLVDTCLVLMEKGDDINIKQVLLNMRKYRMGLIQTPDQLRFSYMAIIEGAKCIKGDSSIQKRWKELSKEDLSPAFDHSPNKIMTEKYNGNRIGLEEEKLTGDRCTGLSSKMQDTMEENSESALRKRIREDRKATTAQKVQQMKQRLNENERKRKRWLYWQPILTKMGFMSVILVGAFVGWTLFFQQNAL

| Ki [1] [µM] | Ki [2] [µM] | Kd [3] [µM] | SMILES |
| --- | --- | --- | --- |
| 634 | 148 | – | CCCC(=O)Nc1cccc(-c2cc(C(=O)O)no2)c1 |
| – | – | 800 | O=C(O)c1cc(-c2ccc(Br)cc2)on1 |
